From patent US20260097083A1, “METHOD FOR PRODUCING PANCREATIC ENDODERM CELLS” (Kyoto University, priority 2022, published 2026)

System: PDX1+/NKX6.1+ pancreatic endoderm cells
Test: Expansion culture with Y-27632 at different concentrations
Format: cell-based
Conditions: 40 days, FIG. 5-A
Description: FIG. 5-A Changes in the number of PDX1^+/NKX6.1^+ pancreatic endoderm cells and the total number of cells during expansion culture with Y-27632 (0, 10, or 50 μM). (1) After the cells produced in clause 1 above were washed with PBS(−), 1 ml of 0.25% trypsin-EDTA was added thereto, and the cells were incubated at 37° C. and 5% CO2 for 5 minutes. (2) The adherent cells were detached through pipetting and were added to a 50-ml centrifuge tube. (3) 4 ml of DMEM (Dulbecco's Modified Eagle Medium)/10% FBS/PS (penicillin-streptomycin) was added to the centrifuge tube. (4) The resulting mixture was centrifuged at 400 G for 3 minutes, and the supernatant was removed. (5) The cells were suspended in improved MEM (containing 10 μM Y-27632, 0.5×B-27 Supplement, and 100 U/ml penicillin/streptomycin), and were counted. (6) When the cells were seeded on a 6-well plate, an amount of the suspension necessary to provide 1×10^6 cells/well was collected and was centrifuged at 400 G for 3 minutes (2×10^5 cells/well for a 24-well plate). (7) After the supernatant was removed, the cells were re-suspended in improved MEM (containing 100 ng/ml KGF, 50 ng/ml EGF, 10 mM nicotinamide, 50 μM Y-27632, 0.5×B-27 Supplement, and 100 U/ml penicillin/streptomycin), the suspension was adjusted to correspond to 2 ml/well, and then the cells were seeded. A 6-well plate to which the cells were to be seeded had been coated in advance by adding a solution formed by mixing 10 μl of iMatrix-511 silk and 1.5 ml of PBS(−) to each well 1 hour before seeding, and incubating the plate at 37° C. and 5% CO2 for 1 hour. (8) On the next day (Day 1), the cells were washed with improved MEM, and then the culture medium was changed to improved MEM (5 ml/well) containing 100 ng/ml KGF, 50 ng/ml EGF, 10 mM nicotinamide, 50 μM Y-27632, 0.5×B-27 Supplement, and 100 U/ml penicillin/streptomycin. (9) The cells were washed with improved MEM 3 days after that (on Day 4), and then the culture medium was changed to the same culture medium as that in the step (7) (5 ml/well). (10) The steps (1) to (7) above were conducted 3 days after that (on Day 7), and the next passage (expansion culture) was conducted. Expansion culture and passage culture were repeated by repeating the steps (8), (9), and (10) from the next day. One round of the passage (expansion culture) corresponded to 7 days (operations above). FIGS. 4-A show the outline of this procedure. […]

C[C@@H](N)[C@H]1CC[C@H](C(=O)Nc2ccncc2)CC1 [Y-27632]
about 1×10^4: number of PDX1+/NKX6.1+ pancreatic endoderm cells increased by a factor of (Y-27632 10 μM) | total number of cells increased by a factor of (Y-27632 10 μM) | number of PDX1+/NKX6.1+ pancreatic endoderm cells increased by a factor of (Y-27632 50 μM) | total number of cells increased by a factor of (Y-27632 50 μM)
